Experimental data: patent publication US20250304537A1 (Repare Therapeutics Inc., priority 2022, published 2025)
Read-outs that look alike come from different tables or passages of the source.

Assays:
[1] = target: recombinant human Myt1 (full length PKMYT1) (Homo sapiens (Human), UniProt Q99640); test: Recombinant human Myt1 kinase assay (ADP-Glo); type: biochemical; conditions: 10 μM ATP
Summary of the method: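 ADP-Glo luminescence measured ATP hydrolysis by recombinant full-length PKMYT1 (18 nM) after 60 min at 30 °C with 10 μM ATP. Compounds in 0.5% DMSO were added to the enzyme 15 min before ATP, at 22 °C, in HEPES/MgCl2/MnCl2 buffer. IC50 and percent maximal inhibition were derived.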

[2] = system: PKMYT1 (CDK1 pThr14) in FUOV1 cells; test: PKMYT1 cell-based activity assay, CDK1 pThr14 AlphaLISA in FUOV1 cells; conditions: read-out: FUOV-1 CDK1 pThr14 IC50
Summary of the method: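 IC50 was derived from AlphaLISA signal (excitation 680 nm, emission 615 nm) for phospho-Thr14 CDK1 in lysates. The detection antibodies were rabbit anti-pThr14 and mouse anti-total CDK1, each at 5 nM. FUOV1 ovarian cells were exposed to compound for 2 hours before lysis.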

recombinant human Myt1 (full length PKMYT1), sequence (Q99640 whole entry): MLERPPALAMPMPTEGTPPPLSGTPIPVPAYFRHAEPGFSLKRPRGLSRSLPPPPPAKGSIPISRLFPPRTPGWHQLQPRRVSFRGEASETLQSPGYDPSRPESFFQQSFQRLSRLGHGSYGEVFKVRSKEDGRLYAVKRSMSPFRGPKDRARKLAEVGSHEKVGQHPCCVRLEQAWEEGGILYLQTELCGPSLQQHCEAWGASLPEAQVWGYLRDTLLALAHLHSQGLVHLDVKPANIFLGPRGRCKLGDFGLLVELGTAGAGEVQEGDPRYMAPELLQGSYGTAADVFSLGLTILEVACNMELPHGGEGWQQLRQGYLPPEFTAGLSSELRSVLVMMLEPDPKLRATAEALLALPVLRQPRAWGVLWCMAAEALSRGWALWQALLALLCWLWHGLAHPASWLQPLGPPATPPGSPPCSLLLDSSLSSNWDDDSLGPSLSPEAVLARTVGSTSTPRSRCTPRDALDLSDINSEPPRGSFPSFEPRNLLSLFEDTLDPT

Row | Compound | IC50 [1] [nM] | IC50 ([2]; 2 h, 2 h compound incubation) [nM] | IC50 ([2]; 2 h, 2 h incubation) [nM] | IC50 ([2]; 2 h, 2 hours with compound) [nM] | IC50 ([2]; 2 h incubation) [nM]
1 | Cc1ccc(O)c(C)c1-c1cc(C2CC2)nc(C(N)=O)c1N [Compound 54] | 18 |  | 2410 |  | 
2 | Cc1ccc2[nH]ncc2c1-c1nc(-c2cc(F)ccc2NC(=O)C2(C)CC2)nc(C(N)=O)c1N [Compound 447] | 3 | 5 |  |  | 
3 | Cc1ccc2[nH]ncc2c1-c1nc(-c2ccccc2S(=O)(=O)NC(C)(C)C)nc(C(N)=O)c1N [Compound 792] | 10100 | > 10000 |  |  | 
4 | Cc1ccc2[nH]ncc2c1-c1nc(-c2cccc3cnsc23)nc(C(N)=O)c1N [Compound 396] | 5 | 152 |  |  | 
5 | Cc1ccc2[nH]ncc2c1-c1nc(-c2cc(F)cnc2NC2CCOC(C(F)(F)F)C2)nc(C(N)=O)c1N (stereo not drawn) [Compound 873] | 19 |  |  | 862 | 
6 | Cc1ccc2[nH]ncc2c1-c1nc(-c2cccnc2N[C@H](c2cccnc2)C(F)F)nc(C(N)=O)c1N [Compound 936] | 2 |  |  | 221 | 
7 | Cc1ccc2[nH]ncc2c1-c1nc(-c2ccccc2NC(C)C(F)(F)F)cc(C(N)=O)c1N (stereo not drawn) [Compound 406] | 5 | 53 |  |  | 
8 | Cc1ccc2[nH]ncc2c1-c1nc(-c2ccccc2-c2ncc[nH]2)nc(C(N)=O)c1N [Compound 808] | 14 |  |  | > 10000 | 
9 | Cc1ccc(O)cc1-c1nc(-c2ccnc(N)c2)nc(C(N)=O)c1N [Compound 4] | 10 |  | 943 |  | 
10 | Cc1ccc2[nH]ncc2c1-c1cc(-c2cccc(OCc3ncco3)n2)nc(C(N)=O)c1N (atropisomer, axis not shown) [Compound 273] | 716 |  |  |  | 4560
11 | Cc1cc(Nc2cc(F)ccc2-c2nc(C(N)=O)c(N)c(-c3c(C)ccc4[nH]ncc34)n2)cc(C)n1 [Compound 624] | 8 | 489 |  |  | 
12 | Cc1ccc2[nH]ncc2c1-c1cc2c(oc3cccnc32)c(C(N)=O)c1N [Compound 458, 7-amino-8-(5-methyl-1H-indazol-4-yl)benzofuro[3,2-b]pyridine-6-carboxamide] | 2 | 142 |  |  | 
13 | NC(=O)c1nc(-c2cc(F)c(F)cc2NCC(F)F)nc(-c2c(Cl)ccc3[nH]ncc23)c1N [Compound 468] | 6 | 228 |  |  | 
14 | Cc1ccc2[nH]ncc2c1-c1nc(-c2cc(F)ccc2NCC(F)F)nc(C(N)=O)c1N [Compound 421] | 4 | 40 |  |  | 
15 | NC(=O)c1nc(-c2ccccc2)nc(-c2c(Cl)ccc3[nH]ncc23)c1N [Compound 115, 5-amino-6-(5-chloro-1H-indazol-4-yl)-2-phenylpyrimidine-4-carboxamide] | 15 |  | 2230 |  | 
16 | Cc1ccc2[nH]ncc2c1-c1nc(-c2cccnc2NCCn2ccnc2C)nc(C(N)=O)c1N [Compound 884] | 13 |  |  | 1610 | 
17 | COC(C)(C)C(=O)Nc1ccccc1-c1nc(C(N)=O)c(N)c(-c2c(C)ccc3[nH]ncc23)n1 [Compound 420] | 7 | 65 |  |  | 
18 | Cc1ccc2[nH]ncc2c1-c1nc(-c2ccccc2NC(=O)C(C)(C)C(F)(F)F)nc(C(N)=O)c1N [Compound 402] | 6 | 41 |  |  | 
19 | Cc1ccc(O)cc1-c1nc(-c2ccccc2)nc(C(N)=O)c1N [Compound 2, 5-amino-6-(5-hydroxy-2-methylphenyl)-2-phenylpyrimidine-4-carboxamide] | 11 |  | 517 |  | 
20 | COc1cccnc1Nc1cc(F)ccc1-c1nc(C(N)=O)c(N)c(-c2c(C)ccc3[nH]ncc23)n1 [Compound 614] | 10 | 37 |  |  | 
21 | Cc1ccc2[nH]ncc2c1-c1nc(-c2cc(F)ccc2NS(=O)(=O)C2(C)CC2)nc(C(N)=O)c1N [Compound 482] | 5 | 114 |  |  | 
22 | Cc1ccc2[nH]ncc2c1-c1nc(-c2cccc(F)c2NC(=O)C2(C)CC2)nc(C(N)=O)c1N [Compound 456] | 6 | 158 |  |  | 
23 | Cc1ccc2[nH]ncc2c1-c1nc(-c2ccccc2NC(=O)C2(C)CC2(F)F)nc(C(N)=O)c1N (stereo not drawn) [Compound 443] | 3 | 26 |  |  | 
24 | Cc1ccc(O)c(C)c1-c1cc(-c2cccc(C(N)=O)c2)nc(C(N)=O)c1N [Compound 51] | 8 |  | 357 |  | 
25 | Cc1ccc2[nH]ncc2c1-c1nc(-c2cc(F)cnc2N[C@H]2CC[C@@](O)(C(F)(F)F)CC2)nc(C(N)=O)c1N [Compound 834] | 21 |  |  | 490 | 

The next lines start with the values.

Row | IC50 [1] [nM] | IC50 ([2]; 2 h, 2 h compound incubation) [nM] | IC50 ([2]; 2 h, 2 h incubation) [nM] | IC50 ([2]; 2 h, 2 hours with compound) [nM] | IC50 ([2]; 2 h incubation) [nM] | Compound
26 | 26 | 447 |  |  |  | Cc1ccc2[nH]ncc2c1-c1nc(-c2ccc(C(F)(F)F)cc2NC(=O)C2(C)CC2)nc(C(N)=O)c1N [Compound 454, 5-amino-6-(5-methyl-1H-indazol-4-yl)-2-(2-(1-methylcyclopropane-1-carboxamido)-4-(trifluoromethyl)phenyl)pyrimidine-4-carboxamide]
27 | 6 | 77 |  |  |  | Cc1ccc2[nH]ncc2c1-c1nc(-c2cc(F)c(F)cc2NC2CCOCC2)nc(C(N)=O)c1N [Compound 466, 5-amino-2-(4,5-difluoro-2-((tetrahydro-2H-pyran-4-yl)amino)phenyl)-6-(5-methyl-1H-indazol-4-yl)pyrimidine-4-carboxamide]
28 | 12 | 540 |  |  |  | Cc1ccc2[nH]ncc2c1-c1nc(-c2cccnc2N)nc(C(N)=O)c1N [Compound 469]
29 | 8 |  |  | 305 |  | Cc1ccc2[nH]ncc2c1-c1nc(-c2cccnc2N[C@H]2CCOCC2(C)C)nc(C(N)=O)c1N [Compound 830]
30 | 3 | 467 |  |  |  | Cc1ccc2[nH]ncc2c1-c1nc(-c2cccnc2NC[C@H]2CCCO2)nc(C(N)=O)c1N [Compound 601]
31 | < 3 |  |  | 95 |  | Cc1ccc2[nH]ncc2c1-c1nc(-c2cc(F)cnc2NC2(C(F)(F)F)CC2)nc(C(N)=O)c1N [Compound 908]
32 | 4 | 29 |  |  |  | Cc1ccc2[nH]ncc2c1-c1nc(-c2cccnc2NC[C@@H]2CCOC2)nc(C(N)=O)c1N [Compound 602]
33 | 516 | > 10000 |  |  |  | Cc1cccc(NC(=O)C2(C)CC2)c1-c1nc(C(N)=O)c(N)c(-c2c(C)ccc3[nH]ncc23)n1 [Compound 457]
34 | 3 |  | 109 |  |  | COCCOc1nccc(-c2cc(-c3c(C)ccc4[nH]ncc34)c(N)c(C(N)=O)n2)n1 [Compound 166]
35 | 12 | 214 |  |  |  | Cc1ccc2[nH]ncc2c1-c1nc(-c2ccc(F)cc2Nc2cc(C#N)ccn2)nc(C(N)=O)c1N [Compound 612]
36 | 22 |  | 1370 |  |  | Cc1ccc2[nH]ncc2c1-c1nc(-c2cccc(C#N)c2)nc(C(N)=O)c1N [Compound 131, 5-amino-2-(3-cyanophenyl)-6-(5-methyl-1H-indazol-4-yl)pyrimidine-4-carboxamide]
37 | 19 |  | 462 |  |  | Cc1ccc2[nH]ncc2c1-c1nc(-c2cccc(N3CCOCC3)c2)nc(C(N)=O)c1N [Compound 102]
38 | 6 |  | 56 |  |  | COCC(=O)Nc1ccccc1-c1nc(C(N)=O)c(N)c(-c2c(C)ccc3[nH]ncc23)n1 [Compound 332, 5-amino-2-(2-(2-methoxyacetamido)phenyl)-6-(5-methyl-1H-indazol-4-yl)pyrimidine-4-carboxamide]
39 | 9 |  | 422 |  |  | Cc1ccc2[nH]ncc2c1-c1nc(-c2ccc3c(c2)OCO3)nc(C(N)=O)c1N [Compound 297]
40 | 165 |  |  |  | 284 | Cc1ccc2[nH]ncc2c1-c1cc(-c2cccc(OC[C@H](N)c3ccccc3)n2)nc(C(N)=O)c1N (atropisomer, axis not shown) [Compound 338]
41 | 8 | 8 |  |  |  | Cc1ccc2[nH]ncc2c1-c1nc(-c2cc(F)c(F)cc2NC(=O)C2(C)CC2)nc(C(N)=O)c1N [Compound 446]
42 | 4 |  | 903 |  |  | Cc1ccc2[nH]ncc2c1-c1cc(-c2ccnc(OCCc3ccccn3)n2)nc(C(N)=O)c1N [Compound 239]
43 | 7 |  | 270 |  |  | CCC(COC)Oc1nccc(-c2cc(-c3c(C)ccc4[nH]ncc34)c(N)c(C(N)=O)n2)n1 (stereo not drawn) [Compound 221]
44 | 28 |  | 3530 |  |  | Cc1ccc(O)cc1-c1nc(-c2ccc(Cl)cc2)nc(C(N)=O)c1N [Compound 18]
45 | 15 |  |  |  | 146 | Cc1ccc(O)c(C)c1-c1cc(-c2nc3ccccc3s2)nc(C(N)=O)c1N [Compound 55]
46 | 6 |  | 188 |  |  | Cc1cccc(-c2cc(-c3c(C)ccc(O)c3C)c(N)c(C(N)=O)n2)n1 [Compound 83]
47 | 3 |  |  | 71 |  | Cc1ccc2[nH]ncc2c1-c1nc(-c2cccnc2NC(=O)C(C)(C)C)nc(C(N)=O)c1N [Compound 805, 5-amino-6-(5-methyl-1H-indazol-4-yl)-2-(2-pivalamidopyridin-3-yl)pyrimidine-4-carboxamide]
48 | 3 | 26 |  |  |  | Cc1ccc2[nH]ncc2c1-c1nc(-c2cc(F)c(F)cc2NC(=O)C2(C#N)CC2)nc(C(N)=O)c1N [Compound 477]
49 | 12 | 317 |  |  |  | Cc1ccc2[nH]ncc2c1-c1nc(-c2ccccc2NC2CCC(F)(F)CC2)nc(C(N)=O)c1N [Compound 453]
50 | 53 | 641 |  |  |  | CCOc1ccccc1-c1nc(C(N)=O)c(N)c(-c2c(C)ccc3[nH]ncc23)n1 [Compound 794]
51 | 6 |  | 336 |  |  | Cc1ccc(O)c(C)c1-c1cc(-c2c[nH]cn2)nc(C(N)=O)c1N [Compound 43]
